# From the OPERA property sets (Mansouri et al. 2018)
row,logP,Structure (SMILES)
1,4.31,CCCC(C)C(=O)Nc1ccc(C)c(Cl)c1 (centres undefined)
2,3.61,O=C(Cc1ccccc1)Nc1cccc(Cl)c1
3,3.6,CC1(NC(=O)Nc2ccccc2)CCCCC1
4,3.49,C=CC(C)C(=O)Nc1ccc(Cl)cc1Cl (centres undefined)
5,4.48,CC(C)CNC(=O)Nc1ccc(Cl)c(Cl)c1
6,2.75,C=CCNc1nc(Cl)nc(NCC=C)n1
7,3.83,CCCC(C)(C)C(=O)Nc1ccc(Cl)cc1
8,3.63,CCNc1nc(Cl)nc(NC2CCCCC2)n1
9,2.85,CCNc1nc(Cl)nc(NCC2CC2)n1
10,4.74,CCCCCC(C)Nc1nc(Cl)nc(NCC)n1 (centres undefined)
11,1.26,CNC(=O)Nc1cccc(OC)c1
12,2.55,CCCc1ccc(NC(=O)N(C)C)cc1
13,2.83,CN(C)C(=O)Nc1cccc(Cc2ccccc2)c1
14,2.77,CCNc1nc(Cl)nc(NC2CCC2)n1
